What was measured:
Test in all cases: relative viability (nuclei count vs DMSO), 5 days (fraction); higher = more cells survive
EPLC-272H = tested on: EPLC-272H
In short: (§1)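 After 5 days of treatment, lung cancer cells in 1536-well plates were fixed and stained in a single step (final 0.05% Triton X-100, 1% formaldehyde, 1 ug/ml Hoechst) and their nuclei counted on 4× images. Treatment had been applied by pin tool the day after seeding as one drug alone or as a fixed anchor-drug dose with five library-drug doses (not always all listed) in √10 steps. Relative viability is the nuclei count of treated wells divided by that of vehicle wells, and values are medians of duplicate plates.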

NCI-H1651 = tested on: NCI-H1651
In short: as §1

NCI-H650 = tested on: NCI-H650
In short: as §1

EMC-BAC-2 = tested on: EMC-BAC-2
In short: as §1

NCI-H2023 = tested on: NCI-H2023
In short: as §1

NCI-H1355 = tested on: NCI-H1355
In short: as §1

UMC-11 = tested on: UMC-11
In short: as §1

HCC-44 = tested on: HCC-44
In short: as §1

SK-MES-1 = tested on: SK-MES-1
In short: as §1

NCI-H2405 = tested on: NCI-H2405
In short: as §1

NCI-H1944 = tested on: NCI-H1944
In short: as §1

NCI-H2085 = tested on: NCI-H2085
In short: as §1

NCI-H1793 = tested on: NCI-H1793
In short: as §1

NCI-H1395 = tested on: NCI-H1395
In short: as §1

LCLC-103H = tested on: LCLC-103H
In short: as §1

NCI-H520 = tested on: NCI-H520
In short: as §1

H3255 = tested on: H3255
In short: as §1

NCI-H322M = tested on: NCI-H322M
In short: as §1

ChaGo-K-1 = tested on: ChaGo-K-1
In short: as §1

NCI-H2087 = tested on: NCI-H2087
In short: as §1

LCLC-97TM1 = tested on: LCLC-97TM1
In short: as §1

HCC-827 = tested on: HCC-827
In short: as §1

Which results are given for `CC1(C)CCC(c2ccc(Cl)cc2)=C(CN2CCN(c3ccc(C(=O)NS(=O)(=O)c4ccc(N[C@H](CCN5CCOCC5)CSc5ccccc5)c(S(=O)(=O)C(F)(F)F)c4)cc3)CC2)C1` [Navitoclax] + Nc1ncn([C@H]2C[C@H](O)[C@@H](CO)O2)c(=O)n1 [Decitabine] (partner 2 µM)?
relative viability (EPLC-272H; first compound 0.005 µM): 0.346; relative viability (EPLC-272H; first compound 0.05 µM): 0.377; relative viability (EPLC-272H; first compound 0.1581 µM): 0.302; relative viability (EPLC-272H; first compound 0.5 µM): 0.38; relative viability (NCI-H1651; first compound 0.005 µM): 0.797; relative viability (NCI-H1651; first compound 0.01581 µM): 0.591; relative viability (NCI-H1651; first compound 0.05 µM): 0.42; relative viability (NCI-H1651; first compound 0.1581 µM): 0.628; relative viability (NCI-H1651; first compound 0.5 µM): 0.644; relative viability (NCI-H650; first compound 0.005 µM): 0.331; relative viability (NCI-H650; first compound 0.01581 µM): 0.298; relative viability (NCI-H650; first compound 0.05 µM): 0.32; relative viability (NCI-H650; first compound 0.1581 µM): 0.336; relative viability (NCI-H650; first compound 0.5 µM): 0.264; relative viability (EMC-BAC-2; first compound 0.005 µM): 0.943; relative viability (EMC-BAC-2; first compound 0.01581 µM): 1.03; relative viability (EMC-BAC-2; first compound 0.05 µM): 0.963; relative viability (EMC-BAC-2; first compound 0.1581 µM): 0.915; relative viability (EMC-BAC-2; first compound 0.5 µM): 0.911; relative viability (NCI-H2023; first compound 0.005 µM): 0.22; relative viability (NCI-H2023; first compound 0.01581 µM): 0.248; relative viability (NCI-H2023; first compound 0.05 µM): 0.188; relative viability (NCI-H2023; first compound 0.1581 µM): 0.191; relative viability (NCI-H2023; first compound 0.5 µM): 0.229; relative viability (NCI-H1355; first compound 0.005 µM): 0.338; relative viability (NCI-H1355; first compound 0.01581 µM): 0.372; relative viability (NCI-H1355; first compound 0.05 µM): 0.369; relative viability (NCI-H1355; first compound 0.1581 µM): 0.355; relative viability (NCI-H1355; first compound 0.5 µM): 0.347; relative viability (UMC-11; first compound 0.005 µM): 0.707; relative viability (UMC-11; first compound 0.01581 µM): 0.635; relative viability (UMC-11; first compound 0.05 µM): 0.616; relative viability (UMC-11; first compound 0.1581 µM): 0.547; relative viability (UMC-11; first compound 0.5 µM): 0.609; relative viability (HCC-44; first compound 0.005 µM): 0.921; relative viability (HCC-44; first compound 0.01581 µM): 0.867; relative viability (HCC-44; first compound 0.05 µM): 0.903; relative viability (HCC-44; first compound 0.1581 µM): 0.861; relative viability (HCC-44; first compound 0.5 µM): 0.898; relative viability (SK-MES-1; first compound 0.005 µM): 0.371; relative viability (SK-MES-1; first compound 0.01581 µM): 0.432; relative viability (SK-MES-1; first compound 0.05 µM): 0.349; relative viability (SK-MES-1; first compound 0.1581 µM): 0.344; relative viability (SK-MES-1; first compound 0.5 µM): 0.372; relative viability (NCI-H2405; first compound 0.005 µM): 0.75; relative viability (NCI-H2405; first compound 0.01581 µM): 0.812; relative viability (NCI-H2405; first compound 0.05 µM): 0.885; relative viability (NCI-H2405; first compound 0.1581 µM): 0.717; relative viability (NCI-H2405; first compound 0.5 µM): 0.771; relative viability (NCI-H1944; first compound 0.005 µM): 0.466; relative viability (NCI-H1944; first compound 0.01581 µM): 0.455; relative viability (NCI-H1944; first compound 0.1581 µM): 0.384; relative viability (NCI-H1944; first compound 0.5 µM): 0.396; relative viability (NCI-H2085; first compound 0.005 µM): 0.612; relative viability (NCI-H2085; first compound 0.01581 µM): 0.695; relative viability (NCI-H2085; first compound 0.05 µM): 0.474; relative viability (NCI-H2085; first compound 0.1581 µM): 0.579; relative viability (NCI-H2085; first compound 0.5 µM): 0.562; relative viability (NCI-H1793; first compound 0.005 µM): 0.448; relative viability (NCI-H1793; first compound 0.01581 µM): 0.595; relative viability (NCI-H1793; first compound 0.1581 µM): 0.49; relative viability (NCI-H1793; first compound 0.5 µM): 0.345; relative viability (NCI-H1395; first compound 0.005 µM): 0.706; relative viability (NCI-H1395; first compound 0.01581 µM): 0.701; relative viability (NCI-H1395; first compound 0.05 µM): 0.724; relative viability (NCI-H1395; first compound 0.1581 µM): 0.713; relative viability (NCI-H1395; first compound 0.5 µM): 0.699; relative viability (LCLC-103H; first compound 0.005 µM): 0.701; relative viability (LCLC-103H; first compound 0.01581 µM): 0.879; relative viability (LCLC-103H; first compound 0.05 µM): 0.764; relative viability (LCLC-103H; first compound 0.1581 µM): 0.703; relative viability (LCLC-103H; first compound 0.5 µM): 0.698; relative viability (NCI-H520; first compound 0.005 µM): 0.432; relative viability (NCI-H520; first compound 0.01581 µM): 0.48; relative viability (NCI-H520; first compound 0.05 µM): 0.423; relative viability (NCI-H520; first compound 0.1581 µM): 0.487; relative viability (NCI-H520; first compound 0.5 µM): 0.489; relative viability (H3255; first compound 0.005 µM): 0.503; relative viability (H3255; first compound 0.01581 µM): 0.668; relative viability (H3255; first compound 0.05 µM): 0.567; relative viability (H3255; first compound 0.1581 µM): 0.596; relative viability (H3255; first compound 0.5 µM): 0.519; relative viability (NCI-H322M; first compound 0.005 µM): 0.722; relative viability (NCI-H322M; first compound 0.01581 µM): 0.863; relative viability (NCI-H322M; first compound 0.05 µM): 0.703; relative viability (NCI-H322M; first compound 0.1581 µM): 0.655; relative viability (NCI-H322M; first compound 0.5 µM): 0.725; relative viability (ChaGo-K-1; first compound 0.005 µM): 0.498; relative viability (ChaGo-K-1; first compound 0.01581 µM): 0.549; relative viability (ChaGo-K-1; first compound 0.05 µM): 0.392; relative viability (ChaGo-K-1; first compound 0.1581 µM): 0.498; relative viability (ChaGo-K-1; first compound 0.5 µM): 0.52; relative viability (NCI-H2087; first compound 0.005 µM): 0.277; relative viability (NCI-H2087; first compound 0.01581 µM): 0.314; relative viability (NCI-H2087; first compound 0.1581 µM): 0.231; relative viability (NCI-H2087; first compound 0.5 µM): 0.266; relative viability (LCLC-97TM1; first compound 0.005 µM): 0.229; relative viability (LCLC-97TM1; first compound 0.01581 µM): 0.268; relative viability (LCLC-97TM1; first compound 0.05 µM): 0.224; relative viability (LCLC-97TM1; first compound 0.1581 µM): 0.217; relative viability (LCLC-97TM1; first compound 0.5 µM): 0.271; relative viability (HCC-827; first compound 0.005 µM): 0.364; relative viability (HCC-827; first compound 0.01581 µM): 0.325; relative viability (HCC-827; first compound 0.05 µM): 0.314; relative viability (HCC-827; first compound 0.1581 µM): 0.327; relative viability (HCC-827; first compound 0.5 µM): 0.31
